Results as given in US11234919B2, “Compound produced by means of marine microorganism and composition for improving skin wrinkles, enhancing elasticity and skin whitening comprising same compound as active ingredient” (KOREA INSTITUTE OF OCEAN SCIENCE & TECHNOLOGY, priority 2017, dated 2022).

Columns and labels:
[1] = system: B-16 melanoma cells; test: Melanogenesis inhibition in B-16 melanoma cell culture; assay type: cell-based; conditions: for Amount of melanin produced: absorbance at 400 nm per 10^6 cells, incubation 3 days
Experimental: The compounds shown in Table 1 were set to have final concentrations of 2 ppm and 20 ppm, and each of the compounds was added to a culture medium of B-16 melanoma cells, followed by incubation for 3 days. Thereafter, the cells were treated with trypsin, detached from the incubator, and centrifuged, and then melanin was extracted therefrom. The melanin was dissolved by addition of 1 mL of a sodium hydroxide solution (1 N) and boiling for 10 min, and then the absorbance was measured at 400 nm using a spectrometer, thereby determining the amount of melanin produced. The amount of melanin was measured as an absorbance per unit cell count (10^6 cells), and the amount of melanin production relative to the control with nothing added was calculated as an inhibition (%). The test was repeated three times.
To compare melanogenesis inhibiting activity of the compounds according to the present disclosure, 20 ppm arbutin was also tested by the same method, and the results are also shown in Table 3.

[2] = system: human-derived fibroblasts; test: Increase in collagen synthesis, PICP EIA kit, human fibroblast culture; assay type: cell-based; conditions: final concentration 20 ppm, incubation one day; for Amount of collagen production: amount of collagen production as absorbance at 450 nm; for Collagen increase (%): ratio of collagen production relative to control
Experimental: Out of the compounds represented by Formula 2, the compounds according to the present disclosure shown in Table 1 were tested for collagen synthesis stimulating activity by addition to cultures of human-derived fibroblasts.
The measurement of synthesized collagen was conducted by quantification using a procollagen type I C-peptide enzyme immunoassay kit (PICP EIA kit).
Collagen synthetic ability was evaluated by selecting the concentrations causing no toxicity on the basis of cytotoxicity results.
In the test, the final concentration of the compounds of the present disclosure was set to 20 ppm. Each sample was added to the culture medium of human fibroblasts, followed by incubation for one day, and then the culture was taken out, and the degree of collagen synthesis was measured at each concentration through the PICP EIA kit by using a spectrometer at 450 nm. For comparison of effects, the degree of collagen synthesis was measured by the same method on a culture medium of fibroblasts with nothing added (control) and a sample with vitamin C added to a final concentration of 20 ppm. The amount of collagen production was measured as a UV absorbance, and the rate of increase in collagen production was calculated as a ratio of collagen production relative to the collagen production of the control.

[3] = melanin production relative to control with nothing added, final concentration 2 ppm, 3 days
[4] = melanin production relative to control with nothing added, final concentration 20 ppm, 3 days

| SMILES | inhibition at 20 ppm ([1]; Mus musculus, B16, 72 h, melanin production relative to control with nothing added, final concentration 20 ppm, 3 days) | Amount of melanin produced ([1]; final concentration 20 ppm) | Amount of collagen production [2] | Collagen increase (%) [2] | Amount of melanin produced ([1]; final concentration 2 ppm) | Inhibition (%) [1, 3] | Inhibition (%) [1, 4] |
| --- | --- | --- | --- | --- | --- | --- | --- |
| OC[C@H]1O[C@@H](Oc2ccc(O)cc2)[C@H](O)[C@@H](O)[C@@H]1O [Arbutin, arbutin, reference compound] | 6.5% | 0.056 ± 0.001 | – | – | – | – | – |
| C=C(C)c1cc(O)cc(=O)o1 [Compound 1] | – | 0.046 ± 0.001 | 287.65 | 152.2% | 0.047 ± 0.001 | 21.8% | 23.5% |
| C/C=C(\C)c1oc(=O)c(C)c(O)c1C [Compound 2] | – | 0.046 ± 0.001 | 287.24 | 147.2% | 0.048 ± 0.001 | 20.0% | 23.5% |
| CC/C=C(\C)c1oc(=O)c(CC)c(O)c1CC [Compound 3] | – | 0.047 ± 0.001 | 287.24 | 147.2% | 0.048 ± 0.001 | 20.0% | 21.8% |
| C=C(C)c1oc(=O)cc(O)c1C(=O)O [Compound 4] | – | 0.046 ± 0.001 | 287.61 | 152.1% | 0.048 ± 0.001 | 20.0% | 23.5% |
| C/C=C(\C)c1oc(=O)c(C)cc1C [Compound 5] | – | 0.047 ± 0.001 | 287.65 | 152.2% | 0.049 ± 0.001 | 18.3% | 21.8% |
| C/C(=C\CO)c1cc(O)cc(=O)o1 [Compound 6] | – | 0.046 ± 0.001 | 287.61 | 152.1% | 0.048 ± 0.001 | 18.3% | 23.5% |
| CCc1c(C)c(C(=O)O)c(/C(C)=C/CO)oc1=O [Compound 9] | – | 0.047 ± 0.001 | 287.61 | 152.1% | 0.049 ± 0.001 | 18.3% | 21.8% |
| CC/C=C(\C)c1oc(=O)c(CC)c(C)c1CC [Compound 10] | – | 0.047 ± 0.001 | 287.24 | 147.2% | 0.049 ± 0.001 | 18.3% | 21.8% |
| O=C1O[C@H]([C@@H](O)CO)C(O)=C1O [Vitamin C, vitamin C, reference compound] | – | – | 217.35 | 115.3% | – | – | – |
